Results on 27 compounds are retold here after ChEMBL document CHEMBL4765254, “Design, synthesis and biological evaluation of 1-alkyl-5/6-(5-oxo-4,5-dihydro-1,2,4-oxadiazol-3-yl)-1H-indole-3-carbonitriles as novel xanthine oxidase inhibitors” (Eur J Med Chem, 2020).

Activity calls are given as the source filed them. The calls are words filed in the database; no cut-off is given here. Some results are limits rather than exact numbers.

Test [1] concerns the target T1, Xanthine dehydrogenase/oxidase (Bos taurus, UniProt P80457). Put plainly: Inhibition of bovine xanthine oxidase assessed as reduction in uric acid formation using xanthine as substrate preincubated for 25 mins followed by substrate addition measured at first 2 mins by spectrophotometric analysis.
In test [2] the target is T1, Xanthine dehydrogenase/oxidase. In words: Mixed type inhibition of bovine xanthine oxidase assessed as inhibitory constant using xanthine as substrate preincubated for 25 mins followed by substrate addition measured at first 2 mins by spectrophotometry based Lineweaver-Burk plot analysis.
The test system of test [3] is Rattus norvegicus. Put plainly: Hypouricemic activity in Sprague-Dawley rat model of Potassium oxonate-induced acute hyperuricemia assessed as percentage decrease in serum uric acid AUC (1 to 8 hrs) at 10 mg/kg, ig administered 1 hr after potassium oxonate treatment and measured after 8 hrs relative to control. The test is classed as functional. Also noted: scale not given: the % may be the effect or the level left.

For test [4], the system named is Rattus norvegicus. In words: Hypouricemic activity in Sprague-Dawley rat model of Potassium oxonate-induced acute hyperuricemia assessed as decrease in serum urate level at 10 mg/kg, ig administered 1 hr after potassium oxonate treatment and measured after 8 hrs. The test is classed as functional, organism-based.
The subject of test [5] is Rattus norvegicus. In words: Hypouricemic activity in Sprague-Dawley rat model of Potassium oxonate-induced acute hyperuricemia assessed as decrease in serum uric acid level at 10 mg/kg, ig administered 1 hr after potassium oxonate treatment and measured after 3 hrs relative to control. In kind it is functional. Also noted: scale not given: the % may be the effect or the level left. To be noted: time 4 hrs.

Test [6] has as its target T1, Xanthine dehydrogenase/oxidase. In words: Inhibition of bovine xanthine oxidase assessed as reduction in uric acid formation at 10 uM using xanthine as substrate preincubated for 25 mins followed by substrate addition measured at first 2 mins by spectrophotometric analysis relative to control. To be noted: cattle, time 27 min.

T1 sequence (P80457 whole entry): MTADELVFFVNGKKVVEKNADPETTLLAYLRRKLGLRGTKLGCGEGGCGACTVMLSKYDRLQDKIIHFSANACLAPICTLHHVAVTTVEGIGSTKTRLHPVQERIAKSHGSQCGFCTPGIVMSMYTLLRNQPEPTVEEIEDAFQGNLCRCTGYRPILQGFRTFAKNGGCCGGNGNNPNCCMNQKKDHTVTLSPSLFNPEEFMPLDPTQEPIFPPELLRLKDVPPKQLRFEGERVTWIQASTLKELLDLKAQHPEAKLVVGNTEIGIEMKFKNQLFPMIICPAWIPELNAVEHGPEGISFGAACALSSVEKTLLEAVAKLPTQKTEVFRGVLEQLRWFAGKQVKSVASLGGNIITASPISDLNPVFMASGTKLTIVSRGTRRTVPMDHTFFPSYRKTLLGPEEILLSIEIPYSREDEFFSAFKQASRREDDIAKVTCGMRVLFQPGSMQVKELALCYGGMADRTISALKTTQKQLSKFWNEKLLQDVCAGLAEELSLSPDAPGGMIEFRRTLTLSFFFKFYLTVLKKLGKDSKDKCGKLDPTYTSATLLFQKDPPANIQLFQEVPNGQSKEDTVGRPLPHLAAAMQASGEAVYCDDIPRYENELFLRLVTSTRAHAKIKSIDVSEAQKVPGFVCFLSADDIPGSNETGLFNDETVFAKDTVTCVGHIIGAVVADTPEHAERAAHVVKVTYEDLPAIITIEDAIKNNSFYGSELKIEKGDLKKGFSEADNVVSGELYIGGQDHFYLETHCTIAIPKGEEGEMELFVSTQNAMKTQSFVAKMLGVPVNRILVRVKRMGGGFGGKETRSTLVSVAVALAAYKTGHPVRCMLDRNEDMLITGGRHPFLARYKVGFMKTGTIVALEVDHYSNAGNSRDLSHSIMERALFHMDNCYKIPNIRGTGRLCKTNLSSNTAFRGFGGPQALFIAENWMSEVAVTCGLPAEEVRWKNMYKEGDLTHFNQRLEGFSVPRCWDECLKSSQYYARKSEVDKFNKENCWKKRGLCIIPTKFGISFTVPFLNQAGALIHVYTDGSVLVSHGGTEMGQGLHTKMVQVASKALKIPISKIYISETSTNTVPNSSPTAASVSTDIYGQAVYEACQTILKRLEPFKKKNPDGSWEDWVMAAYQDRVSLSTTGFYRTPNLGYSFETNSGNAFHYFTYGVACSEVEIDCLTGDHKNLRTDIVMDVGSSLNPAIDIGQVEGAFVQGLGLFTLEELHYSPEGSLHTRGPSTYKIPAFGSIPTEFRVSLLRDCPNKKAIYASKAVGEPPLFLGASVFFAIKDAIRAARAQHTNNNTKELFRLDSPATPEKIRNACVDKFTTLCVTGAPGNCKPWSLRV

Take `Cc1ccc(Cn2cc(C#N)c3cc(-c4noc(=O)[nH]4)ccc32)cc1`: the IC50 – broadly, the concentration that inhibits the measured activity by half – in test [1] was 1140 nM.

For `Cn1cc(C#N)c2cc(-c3noc(=O)[nH]3)ccc21`, in test [1], the IC50 worked out at 5410 nM.

Turning to `N#Cc1cn(Cc2cccc(Cl)c2)c2ccc(-c3noc(=O)[nH]3)cc12`, the IC50 in test [1] was 2930 nM.

Consider `Cc1ccc(Cn2cc(C#N)c3ccc(-c4noc(=O)[nH]4)cc32)cc1`, for which, in test [1], the IC50 came to 1840 nM.

As for `CC(C)CCn1cc(C#N)c2cc(-c3noc(=O)[nH]3)ccc21`, in test [1], the concentration for half-maximal inhibition (IC50) came to 1020 nM.

In the case of `CC(C)n1cc(C#N)c2cc(-c3noc(=O)[nH]3)ccc21`, the IC50 in test [1] is 410 nM.

Turning to `N#Cc1cn(C2CCCC2)c2ccc(-c3noc(=O)[nH]3)cc12`, the Ki (in general, the dissociation constant of the complex between target and ligand, obtained from inhibition or displacement) in test [2] is 138 nM. Also, the results for the Activity in the test with Rattus norvegicus [3] and in the test on Rattus norvegicus [5] were 12.8% and 20.8%, respectively. In addition, the outcome with Rattus norvegicus [4] was Active.

`COc1cccc(Cn2cc(C#N)c3cc(-c4noc(=O)[nH]4)ccc32)c1`: in test [1], the IC50 came out at 1700 nM.

`Cc1cccc(Cn2cc(C#N)c3cc(-c4noc(=O)[nH]4)ccc32)c1`: the IC50 in test [1] was determined as 2160 nM.

As for `CC(C)=CCn1cc(C#N)c2cc(-c3noc(=O)[nH]3)ccc21`, the IC50 in test [1] worked out at 1240 nM.

For `COc1ccc(Cn2cc(C#N)c3cc(-c4noc(=O)[nH]4)ccc32)cc1`, the IC50 in test [1] was determined as 1020 nM.

Turning to `N#Cc1c[nH]c2ccc(-c3noc(=O)[nH]3)cc12`, in test [1], the IC50 is 4130 nM.

Take `N#Cc1cn(Cc2ccc(F)cc2)c2ccc(-c3noc(=O)[nH]3)cc12`: the IC50 in test [1] worked out at 1710 nM.

`CC(C)n1cc(C#N)c2ccc(-c3noc(=O)[nH]3)cc21`: the IC50 in test [1] came out at 1800 nM.

As for `N#Cc1cn(CC2CCCCC2)c2ccc(-c3noc(=O)[nH]3)cc12`, the IC50 in test [1] amounted to 2860 nM.

Take `N#Cc1cn(Cc2ccccc2)c2ccc(-c3noc(=O)[nH]3)cc12`: the IC50 in test [1] came to 1720 nM.

As to `CC(C)Cn1cc(C#N)c2cc(-c3noc(=O)[nH]3)ccc21`, the IC50 in test [1] is 1090 nM.

Regarding `N#Cc1cn(Cc2ccc(Br)cc2)c2ccc(-c3noc(=O)[nH]3)cc12`, in test [1], the IC50 is 2070 nM.

Consider `CC(C)n1ccc2cc(-c3noc(=O)[nH]3)ccc21`, for which the inhibition (usually the change of the read-out against control, counted positive when it falls) at 10 µM in test [6] is below 50%.

Regarding `N#Cc1cn(C2CCCC2)c2cc(-c3noc(=O)[nH]3)ccc12`, in test [1], the IC50 came to 820 nM.

Regarding `CC(C)(C)c1ccc(Cn2cc(C#N)c3cc(-c4noc(=O)[nH]4)ccc32)cc1`, the IC50 in test [1] was 1440 nM.

With `N#Cc1cn(Cc2cccc(F)c2)c2ccc(-c3noc(=O)[nH]3)cc12`, the IC50 in test [1] turned out to be 3600 nM.

Turning to `N#Cc1cn(Cc2ccc(Cl)cc2)c2ccc(-c3noc(=O)[nH]3)cc12`, the IC50 in test [1] worked out at 2400 nM.

`CC(C)CCn1cc(C#N)c2ccc(-c3noc(=O)[nH]3)cc21`: the IC50 in test [1] is 6560 nM.

As to `N#Cc1cn(Cc2cccc(Br)c2)c2ccc(-c3noc(=O)[nH]3)cc12`, the IC50 in test [1] turned out to be 2600 nM.

For `N#Cc1cn(CC2CC2)c2ccc(-c3noc(=O)[nH]3)cc12`, the IC50 in test [1] came to 880 nM.

As for `O=c1[nH]c(-c2ccc3c(ccn3C3CCCC3)c2)no1`, in test [6], the inhibition at 10 µM was below 50%.
